According to ChEMBL document CHEMBL1201862, “PubChem BioAssay data set” (2004):
Active and inactive are the calls of the source.

What was measured:
[1] = luciferase reporter signal suppression in cells – H4 neuroglioma cells, luminescence, dose response (AID 1990); type: functional, cell-based
Protein RecA = biological target: T1, Protein RecA (Mycobacterium tuberculosis, UniProt P9WHJ3); assay: Fluorescence Cell-Free Homogeneous Dose Retest to Identify Inhibitors of RecA-Intein Splicing Activity. [Related pubchem assays (depositor defined):AID2097, AID2223, AID489010, AID492950]; type: functional
T1 sequence (P9WHJ3 whole entry): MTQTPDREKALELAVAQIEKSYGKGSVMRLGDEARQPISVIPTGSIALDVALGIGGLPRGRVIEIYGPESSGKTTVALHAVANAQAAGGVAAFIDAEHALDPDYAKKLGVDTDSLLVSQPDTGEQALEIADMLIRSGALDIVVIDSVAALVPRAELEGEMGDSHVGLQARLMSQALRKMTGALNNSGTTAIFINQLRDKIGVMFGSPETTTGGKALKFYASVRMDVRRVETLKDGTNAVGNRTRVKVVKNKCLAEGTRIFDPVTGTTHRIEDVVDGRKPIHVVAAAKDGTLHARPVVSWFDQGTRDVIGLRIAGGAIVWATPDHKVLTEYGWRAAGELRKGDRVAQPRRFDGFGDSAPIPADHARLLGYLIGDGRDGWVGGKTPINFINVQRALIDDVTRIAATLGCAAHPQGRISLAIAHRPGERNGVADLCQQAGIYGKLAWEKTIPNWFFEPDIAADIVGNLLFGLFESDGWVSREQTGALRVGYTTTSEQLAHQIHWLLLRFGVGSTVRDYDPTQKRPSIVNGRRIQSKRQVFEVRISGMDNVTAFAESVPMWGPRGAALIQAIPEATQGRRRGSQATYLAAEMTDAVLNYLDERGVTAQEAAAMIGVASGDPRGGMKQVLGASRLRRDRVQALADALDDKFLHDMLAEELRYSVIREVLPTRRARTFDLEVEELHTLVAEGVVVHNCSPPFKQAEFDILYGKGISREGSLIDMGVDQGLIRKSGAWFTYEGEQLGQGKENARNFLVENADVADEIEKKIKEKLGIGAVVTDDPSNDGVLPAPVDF

Streptococcus = assay: GAS UMAA2166 growth inhibition – luminescence, BacTiterGlo, counter-screen for streptokinase expression inhibitor project, dose response (AID 1915); type: functional, organism-based;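 note: potency for reduction of bacterial viability or growth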
[2] = general cell-killing toxicity readout – plate reader, dry powder samples, cytotoxicity control for PAX8 inhibitor project, dose response (AID 743021); type: functional, cell-based
Fatty acid synthase = Fatty acid synthase (Homo sapiens, UniProt P49327); assay: inhibition of human FAS-TE enzyme activity – biochemical, endpoint fluorescence intensity, uHTS hits, dose response (AID 624327); type: functional;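 note: fluorescence from hydrolysis of an O-methyl fluorescein acyl ester substrate by the enzyme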
CHO = CHO cell viability loss, potency – luminescence, cytotoxicity control for TLR9-MyD88 binding inhibitor project, dose response (AID 588339); type: functional, cell-based, hamster; conditions: Cricetulus griseus;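 note: CHO cells stably coexpressing TLR9 and MyD88 fusions from primary screen; compound exposure lasted 48 hours before viability readout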
Paired box protein Pax-8 = Paired box protein Pax-8 (Homo sapiens, UniProt Q06710); assay: PAX8 transcriptional activity inhibition in RMG-I – RMG-I cells, luciferase, cherry-pick, dose response (AID 687027); type: functional, cell-based;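 note: luciferase reporter driven by Pax8 target thyroperoxidase promoter measured by SteadyGlo luminescence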
[3] = biological target: T2, Sentrin-specific protease 7 (Homo sapiens, UniProt Q9BQF6); type: functional;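 note: Luminescence-based dose-response confirmation of ultra-high-throughput screening hits, measuring inhibition of SENP7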
T2 sequence (Q9BQF6 whole entry): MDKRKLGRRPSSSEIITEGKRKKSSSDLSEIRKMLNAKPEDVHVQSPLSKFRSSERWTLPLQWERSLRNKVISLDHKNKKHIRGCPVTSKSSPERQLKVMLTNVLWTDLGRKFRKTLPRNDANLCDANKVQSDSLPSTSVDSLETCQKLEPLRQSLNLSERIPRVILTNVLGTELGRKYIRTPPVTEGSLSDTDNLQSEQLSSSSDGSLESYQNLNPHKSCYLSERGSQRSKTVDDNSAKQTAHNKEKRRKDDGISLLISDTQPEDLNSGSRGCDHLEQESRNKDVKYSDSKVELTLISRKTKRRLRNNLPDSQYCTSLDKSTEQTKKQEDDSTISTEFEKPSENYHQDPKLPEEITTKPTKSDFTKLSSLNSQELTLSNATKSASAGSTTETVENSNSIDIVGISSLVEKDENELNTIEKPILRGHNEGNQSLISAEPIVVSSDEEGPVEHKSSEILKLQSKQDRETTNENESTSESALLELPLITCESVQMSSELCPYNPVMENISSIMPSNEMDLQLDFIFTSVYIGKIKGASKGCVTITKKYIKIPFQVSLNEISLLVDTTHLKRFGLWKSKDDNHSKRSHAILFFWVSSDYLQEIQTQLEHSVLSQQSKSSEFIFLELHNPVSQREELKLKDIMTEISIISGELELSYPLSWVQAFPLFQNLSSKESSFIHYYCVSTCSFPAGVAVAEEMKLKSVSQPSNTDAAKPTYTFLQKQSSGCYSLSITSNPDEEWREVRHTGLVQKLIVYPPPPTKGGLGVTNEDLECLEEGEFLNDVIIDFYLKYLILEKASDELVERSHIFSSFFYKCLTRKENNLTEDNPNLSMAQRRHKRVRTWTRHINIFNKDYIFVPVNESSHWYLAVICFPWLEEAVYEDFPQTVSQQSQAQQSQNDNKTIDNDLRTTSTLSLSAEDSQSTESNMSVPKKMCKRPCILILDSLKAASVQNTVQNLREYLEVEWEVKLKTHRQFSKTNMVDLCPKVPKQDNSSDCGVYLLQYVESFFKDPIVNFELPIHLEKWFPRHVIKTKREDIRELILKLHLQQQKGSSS

[4] = biological target: T3, Sentrin-specific protease 8 (Homo sapiens, UniProt Q96LD8); type: functional;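 note: luminescence read-out of SENP8 inhibition, dose-response confirmation following an ultra-high-throughput screen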
T3 sequence (Q96LD8 whole entry): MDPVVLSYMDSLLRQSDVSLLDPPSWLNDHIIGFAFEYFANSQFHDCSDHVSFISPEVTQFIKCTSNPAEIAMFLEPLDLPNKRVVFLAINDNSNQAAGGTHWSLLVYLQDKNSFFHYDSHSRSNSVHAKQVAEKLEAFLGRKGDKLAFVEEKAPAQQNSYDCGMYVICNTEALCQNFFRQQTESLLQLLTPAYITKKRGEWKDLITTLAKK

Caspase-3 = biological target: T4, Caspase-3 (Homo sapiens, UniProt P42574); type: functional;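 note: Dose-response selectivity test against caspase-3 for candidate inhibitors of sentrin-specific proteases (SENPs)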
T4 sequence (P42574 whole entry): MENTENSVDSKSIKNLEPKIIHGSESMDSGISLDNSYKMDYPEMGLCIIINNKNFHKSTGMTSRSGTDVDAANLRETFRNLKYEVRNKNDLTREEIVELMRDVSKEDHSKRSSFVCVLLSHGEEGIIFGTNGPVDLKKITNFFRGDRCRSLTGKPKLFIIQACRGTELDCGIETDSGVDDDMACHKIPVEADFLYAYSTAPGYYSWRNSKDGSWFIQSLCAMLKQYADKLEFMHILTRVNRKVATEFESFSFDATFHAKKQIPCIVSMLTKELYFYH

[5] = microbe, parasite or virus in culture; type: functional; conditions: Mycobacterium tuberculosis
Nonstructural protein 1 = Nonstructural protein 1 (Influenza A virus, UniProt Q194T2); type: functional, Influenza A virus (A/California/07/2009(H1N1))
Sequence of Nonstructural protein 1 (Q194T2 whole entry): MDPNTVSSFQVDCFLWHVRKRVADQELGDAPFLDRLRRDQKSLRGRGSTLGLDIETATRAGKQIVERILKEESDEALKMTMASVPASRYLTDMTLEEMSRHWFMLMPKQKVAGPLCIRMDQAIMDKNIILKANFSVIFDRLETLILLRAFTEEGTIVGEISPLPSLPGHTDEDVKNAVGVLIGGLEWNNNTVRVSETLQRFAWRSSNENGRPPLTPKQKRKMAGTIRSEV

Sequence of Fatty acid synthase (P49327 whole entry, the tested form may be a part): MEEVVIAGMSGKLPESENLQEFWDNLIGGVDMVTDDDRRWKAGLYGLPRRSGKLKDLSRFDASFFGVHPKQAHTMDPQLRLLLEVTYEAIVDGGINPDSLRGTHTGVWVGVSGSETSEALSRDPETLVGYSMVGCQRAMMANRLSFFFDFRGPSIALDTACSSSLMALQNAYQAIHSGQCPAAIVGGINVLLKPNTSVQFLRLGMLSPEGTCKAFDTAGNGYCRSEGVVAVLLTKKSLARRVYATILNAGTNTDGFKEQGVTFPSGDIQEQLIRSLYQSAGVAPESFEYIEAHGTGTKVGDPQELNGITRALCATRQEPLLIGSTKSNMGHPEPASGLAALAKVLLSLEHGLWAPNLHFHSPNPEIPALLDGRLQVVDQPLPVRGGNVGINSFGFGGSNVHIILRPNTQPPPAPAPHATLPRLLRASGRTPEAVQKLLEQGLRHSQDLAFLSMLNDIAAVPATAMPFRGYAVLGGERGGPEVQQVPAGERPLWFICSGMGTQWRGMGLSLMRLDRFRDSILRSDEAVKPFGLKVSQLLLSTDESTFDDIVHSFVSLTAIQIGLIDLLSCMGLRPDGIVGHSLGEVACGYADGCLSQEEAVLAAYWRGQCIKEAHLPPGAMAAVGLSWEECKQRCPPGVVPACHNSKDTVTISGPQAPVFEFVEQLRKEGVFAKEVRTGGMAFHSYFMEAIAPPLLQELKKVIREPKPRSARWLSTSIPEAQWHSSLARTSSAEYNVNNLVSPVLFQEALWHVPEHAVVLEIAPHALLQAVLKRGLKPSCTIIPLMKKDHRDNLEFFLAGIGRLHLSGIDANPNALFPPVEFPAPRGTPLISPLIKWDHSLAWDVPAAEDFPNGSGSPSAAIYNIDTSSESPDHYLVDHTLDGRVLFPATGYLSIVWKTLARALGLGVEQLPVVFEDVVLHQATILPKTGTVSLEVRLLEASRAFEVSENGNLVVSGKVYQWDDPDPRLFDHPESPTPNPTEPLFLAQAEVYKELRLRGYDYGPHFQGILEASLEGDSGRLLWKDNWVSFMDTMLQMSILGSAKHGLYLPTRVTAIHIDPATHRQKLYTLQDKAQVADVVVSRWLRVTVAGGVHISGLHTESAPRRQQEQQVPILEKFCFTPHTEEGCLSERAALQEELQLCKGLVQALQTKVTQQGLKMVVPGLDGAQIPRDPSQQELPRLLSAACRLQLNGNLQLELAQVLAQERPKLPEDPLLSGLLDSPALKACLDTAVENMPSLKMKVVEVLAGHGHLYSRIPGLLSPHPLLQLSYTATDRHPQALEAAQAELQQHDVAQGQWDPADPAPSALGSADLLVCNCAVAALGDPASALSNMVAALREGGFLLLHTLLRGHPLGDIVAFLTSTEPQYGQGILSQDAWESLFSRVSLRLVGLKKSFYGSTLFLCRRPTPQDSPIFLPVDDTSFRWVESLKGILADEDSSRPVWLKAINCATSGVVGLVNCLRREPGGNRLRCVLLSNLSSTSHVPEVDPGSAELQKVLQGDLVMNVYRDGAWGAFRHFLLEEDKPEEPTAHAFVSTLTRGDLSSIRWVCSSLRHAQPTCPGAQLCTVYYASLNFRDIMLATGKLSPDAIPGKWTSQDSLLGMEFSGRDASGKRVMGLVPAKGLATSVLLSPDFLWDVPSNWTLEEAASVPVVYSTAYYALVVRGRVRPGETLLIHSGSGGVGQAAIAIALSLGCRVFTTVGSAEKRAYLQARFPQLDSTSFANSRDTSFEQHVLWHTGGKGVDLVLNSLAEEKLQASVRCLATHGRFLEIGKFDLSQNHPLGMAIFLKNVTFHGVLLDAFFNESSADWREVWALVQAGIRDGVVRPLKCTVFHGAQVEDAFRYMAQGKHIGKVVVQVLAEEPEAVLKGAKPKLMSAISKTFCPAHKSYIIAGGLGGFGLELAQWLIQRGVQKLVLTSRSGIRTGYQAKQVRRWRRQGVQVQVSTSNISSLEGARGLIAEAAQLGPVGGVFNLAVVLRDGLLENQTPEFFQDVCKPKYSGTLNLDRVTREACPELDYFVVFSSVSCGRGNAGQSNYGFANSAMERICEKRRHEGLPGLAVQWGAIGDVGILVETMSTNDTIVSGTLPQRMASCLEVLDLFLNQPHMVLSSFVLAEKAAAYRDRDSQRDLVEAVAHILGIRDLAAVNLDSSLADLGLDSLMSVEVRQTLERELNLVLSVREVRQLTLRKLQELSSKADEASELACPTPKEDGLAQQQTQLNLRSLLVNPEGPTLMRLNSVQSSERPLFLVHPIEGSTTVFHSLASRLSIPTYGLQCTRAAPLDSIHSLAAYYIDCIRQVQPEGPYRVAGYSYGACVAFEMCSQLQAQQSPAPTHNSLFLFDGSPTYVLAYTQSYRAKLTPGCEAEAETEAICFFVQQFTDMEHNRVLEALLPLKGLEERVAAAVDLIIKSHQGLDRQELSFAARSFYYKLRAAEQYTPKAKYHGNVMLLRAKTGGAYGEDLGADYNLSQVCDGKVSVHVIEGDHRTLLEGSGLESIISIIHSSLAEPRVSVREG
Sequence of Paired box protein Pax-8 (Q06710 whole entry): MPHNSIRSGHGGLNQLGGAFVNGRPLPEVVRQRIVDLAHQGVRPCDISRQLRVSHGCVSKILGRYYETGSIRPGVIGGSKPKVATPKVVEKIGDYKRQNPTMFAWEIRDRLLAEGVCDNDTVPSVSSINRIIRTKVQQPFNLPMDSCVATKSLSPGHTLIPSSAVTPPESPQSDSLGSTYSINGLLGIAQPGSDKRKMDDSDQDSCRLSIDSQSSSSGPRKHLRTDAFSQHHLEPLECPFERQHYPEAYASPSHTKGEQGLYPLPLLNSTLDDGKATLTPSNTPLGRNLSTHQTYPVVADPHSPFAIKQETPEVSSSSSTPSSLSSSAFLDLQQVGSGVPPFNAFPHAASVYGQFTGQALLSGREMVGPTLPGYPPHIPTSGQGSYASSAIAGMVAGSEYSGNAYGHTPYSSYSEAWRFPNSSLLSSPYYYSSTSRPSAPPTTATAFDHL

Row | SMILES | EC50 [1] | EC50 (Protein RecA) | EC50 (Streptococcus) | AC50 [2] | IC50 (Fatty acid synthase) | IC50 (CHO) | AC50 (Paired box protein Pax-8) | IC50 [3] | IC50 [4] | IC50 (Caspase-3) | CC50 [5] | IC50 (Nonstructural protein 1)
1 | CCC1CCCCN1S(=O)(=O)c1ccc(NC(=O)c2nc(S(C)(=O)=O)ncc2Cl)cc1 (configuration not stated) | 11.2 µM (active) | 1.11 µM (active) | 13.2 µM (active) | 20.8 µM (active) | 5.75 µM (active) | 1.91 µM (active) | 5.67 µM (active) |  |  |  |  | 
2 | CCCC[n+]1ccn(C2=C([N-]S(=O)(=O)c3ccc(Cl)cc3)C(=O)c3ccccc3C2=O)c1 |  |  |  |  |  |  |  | 22 µM (active) | 38.2 µM (active) | 55.7 µM (active) |  | 
3 | CC(=O)c1cccc2c1N=C(c1[nH]c3ccccc3c1O)C2=O |  | 2.76 µM (active) | > 150 µM (not active) |  |  |  |  | 15.7 µM (active) | 12.3 µM (active) | 11.1 µM (active) | > 40 µM (active) | 13.9 µM (active)
